Columns and labels:
P42 FVB mice = experiment: Cisplatin-induced hearing loss in adult mice (ABR, OHC counts, pERK)
Description: As described in Fig. 4A, baseline auditory brainstem response (ABR) thresholds for P42 FVB mice were established 1 week before experimental procedures. […] Animals were allowed 21 days after cisplatin injection to recover, and final ABR thresholds were recorded.
Ten milligrams of cisplatin (479306, Sigma-Aldrich) powder was dissolved in 10 ml of sterile saline (0.9% NaCl) at 37°C for 40 to 60 min. Cisplatin was administered to FVB mice at 30 mg/kg via intraperitoneal injection. One day before cisplatin injection, mice received 1 ml of saline by subcutaneous injection. To ameliorate dehydration after cisplatin injection, 1 ml of warm saline was injected twice per day for at least 7 days or until body weight started to recover. The cages of cisplatin-treated mice were placed on the heating pad for at least 7 days or until body weight began to recover. Fresh mush food was daily given for at least 7 days.
Compounds were dissolved in a mixture of 10% DMSO, 5% Tween 80 (P1754, Sigma-Aldrich), 40% PEG-E-300 (91462-1KG, Sigma-Aldrich), and 45% 0.9% saline.
ABR in mice was measured for left ears as described previously with minor modifications ([13], [34]). In brief, ABR waveforms were recorded in a sound booth (Industrial Acoustic Company) by using subdermal needles positioned in the skull, below the pinna, and at the base of the tail, and the responses were fed into a low-impedance Medusa digital biological amplifier system (RA4L; TDT; 20-dB gain). At each frequency, the stimulus intensity was reduced from 90 to 0 dB in 10-dB steps to determine the threshold decibel SPL when the electrical response was just above the noise floor. ABR waveforms were averaged in response to 500 tone bursts. The recorded signals were filtered by a band-pass filter from 300 Hz to 3 kHz. Pretreatment ABR recordings of adult FVB mice (aged 6 weeks) were acquired 1 week before all treatments, and posttreatment ABR measurements were recorded 21 days after cisplatin treatment or 14 days after noise exposure. ABR threshold was determined by the presence of any of three or more of the five waveform peaks. […] All thresholds and shifts were determined independently by two experimenters for each mouse. Individual ABR wave 1 amplitudes were measured as the difference between the positive peak and the following negative trough.
Cochleae from adult mice were prepared and examined as described previously ([85], [86]). All images were acquired with a confocal microscope (LSM 700 or 710, Zeiss). Samples were stained with phalloidin (A12379 or A12380, Invitrogen) or with antibodies for other markers. The following primary antibodies were used: anti–myosin VI (1:400; 25-6791; Proteus Bioscience), anti–myosin VIIa ([…];138-1-s, Developmental Studies Hybridoma Bank), anti-Tuj1 (1:250; 801201, BioLegend), anti-pERK (1:400; 9101S, Cell Signaling Technology), or anti-Ctbp2 (1:500; 612044, BD Transduction). Anti-rabbit Alexa Fluor 488 (1:400; A11034) and anti-mouse Alexa Fluor 647 (1:400; A31571) secondary antibodies were purchased from Invitrogen. ProLong gold antifade reagent with 4′,6-diamidino-2-phenylindole (P36941, Invitrogen) was used to counterstain nuclei.

[1] = set-up: method as in PMID 29039591, PMID 31818130; conditions: cited from earlier work
HEI-OC1 cells = experiment: Cell Titer-Glo cell viability assay, compound alone; type: cell-based; conditions: all concentrations tested
Source text: All compounds were further characterized via Cell Titer-Glo cell viability assay to determine toxicity of the compound alone in HEI-OC1 cells (table S1 and dataset in the Supplementary Materials). […] The other BRAF inhibitors had similar IC50 in the micromolar range and were nontoxic to cells (table S1).
In these screens, caspase-3 cleavage was chosen as the end point indicating cisplatin-induced apoptosis, because it allowed the inhibition of cell death to be monitored at the level of any molecular target upstream of caspase-3 cleavage in the HEI-OC1 cell line. Cells were plated at a previously optimized concentration of 1600 cells per well in medium without γ-interferon to limit proliferation and tested against 50 μM cisplatin based on a previous dose–response curve. Tested compounds were dissolved in DMSO before addition to medium with a final DMSO concentration of <0.5%. The screens are described in detail in our previous publications ([12], [13]). […] Pifithrin-α was added to each plate as a screening quality control. The linearity of the Caspase-Glo 3/7 (Promega) assay, which enables the measurement of light emitted as a result of caspase-3/7 cleavage and is suitable for HTS, was validated, and it was verified that 0.5% DMSO had no effect on the cell death kinetics. Compounds were screened in triplicate at final concentrations ranging from 1 nM to 85 μM and incubated for 22 hours. […]

[2] = system: phosphorylated ERK (pERK); experiment: pERK immunostaining of cisplatin-treated cochlear explants; type: cell-based, mouse; conditions: 3 μM, 1 hour pretreatment, 10 min 150 μM cisplatin
Source text: Tissue samples were then imaged via confocal microscopy.

[3] = system: BRAF, MEK, and ERK phosphorylation; experiment: Western blot of cisplatin-induced MAPK phosphorylation in HEI-OC1 cells; conditions: 14, 35, or 75 μM, 1 hour pretreatment, 50 μM cisplatin 1 hour
Description: Whole lysates of HEI-OC1 cells were prepared in lysis buffer (9803, Cell Signaling Technology) after adding protease (cOmplete ULTRA Tablets 05892791001) and phosphatase (PhosSTOP 04906845001) inhibitors (Roche). The lysates were centrifuged for 10 min at 15,000g at 4°C, and the supernatants were collected. Protein concentrations in protein solutions were determined with the BCA protein assay kit (23235, Thermo Fisher Scientific). Forty micrograms of total cell lysate was loaded on 4 to 20% SDS–polyacrylamide gel electrophoresis gels. The following antibodies were used for immunoblot analysis: anti-BRAF (14814S), anti-pBRAF (Ser^445, 2696S), anti-ERK1/2 (4695), anti-pERK1/2 (Thr^202/Tyr^204, 9101S), anti-MEK1/2 (9122S), and anti-pMEK1/2 (Ser^217/221, 41G9S) were obtained from Cell Signaling Technologies and anti–β-actin (C4; SC-47778) was purchased from Santa Cruz. The antibodies were used at dilutions ranging from 1:500 to 1:1000. Anti-mouse (P0447) and anti-rabbit (P0448) secondary antibodies were purchased from Dako Laboratories and diluted 1:5000. National Institutes of Health (NIH) ImageJ software was used to quantify the band intensities and recorded as a ratio to loading control β-actin. Each Western blot series (n) was carried out using cell lysates from separate experiments. Blot intensities were quantified using NIH ImageJ software.

SMILES: CC(C)(C)c1nc(-c2cccc(NS(=O)(=O)c3c(F)cccc3F)c2F)c(-c2ccnc(N)n2)s1 [dabrafenib]
- ERK phosphorylation in cochlear SCs after cisplatin (P42 FVB mice; 100 mg/kg 45 min pretreatment, 1 hour after cisplatin 30 mg/kg i.p.): attenuated
- protection of ABR threshold at 16 kHz (P42 FVB mice; 100 mg/kg oral, cisplatin 30 mg/kg i.p.): nearly full protection
- loss of OHCs in cochlea, combined with cisplatin (P42 FVB mice; 100 mg/kg oral, cisplatin 30 mg/kg, 8-, 16-, 32-kHz regions): limited
- OHC loss, drug alone (P42 FVB mice; 100 mg/kg oral, no cisplatin): No OHC loss
- whole-body toxicity or ototoxic effects (P42 FVB mice; 3-day dabrafenib-alone treatment, weight, appearance/behavior, ototoxicity up to 21 days): did not observe whole-body toxicity or ototoxic effects
- survival rate of mice (P42 FVB mice; cisplatin 30 mg/kg i.p., alone or combined with dabrafenib): 50%
- crossing of the blood-labyrinth barrier (P42 FVB mice; inferred from effects in mice via oral delivery): crosses the blood-labyrinth barrier
- ABR wave 1 amplitude at 16 kHz versus cisplatin alone (P42 FVB mice; significant at 90-dB SPL): higher
- blood-brain barrier penetration [1]: penetrates the blood-brain barrier
- toxicity of the compound alone, cell viability assay (HEI-OC1 cells): nontoxic
- effect on cisplatin-induced ERK phosphorylation in DC and IPhC regions [2]: prevented ERK activation
- effect on cisplatin-induced BRAF, MEK, and ERK phosphorylation [3]: mitigated these changes in a dose-dependent manner

From PMC7821884, “BRAF inhibition protects against hearing loss in mice” (Science Advances, 2020)
